We go through 19 compounds from patent US10041937B2, “Macrophage identification agent, and identification method, sorting method, evaluation method, screening method and kit using the macrophage identifier agent” (CANON KABUSHIKI KAISHA, priority 2013, dated 2018).

This assay relates to M1 macrophages and M2 macrophages differentiated from mouse bone marrow cells. As to the kind of experiment: Subtype identification by staining and flow cytometry of M1 and M2 macrophages differentiated from mouse bone marrow cells. The format is cell-based, Balb/c mouse. Here is the method: The culture of subtypes was performed according to a protocol described in NPL 7. Specifically, bone marrow cells collected from the femur of a Balb/c mouse of 8 to 10 weeks old were dispersed to a concentration of 1×10^6/mL in an IMDM containing 20% FBS and 1% P/S, and 1×10^7 cells were seeded in a 100 mm dish. After further adding an M-CSF (manufactured by Pepro Tech) thereto to a concentration of 50 ng/mL, the cells were incubated for 3 to 4 days in the presence of 5% CO2 at 37° C., so as to differentiate macrophage precursor cells to macrophages. After exchanging the medium, the M-CSF was added to a concentration of 50 ng/mL, and the incubation was performed for further 3 to 4 days in the presence of 5% CO2 at 37° C., and then, the resulting cells were differentiated to macrophage. By adding 200 ng of interferon-γ and 1 μg of […] (both manufactured by Pepro Tech) to the IMDM containing 5% FBS and 1% P/S, the cells were differentiated to the subtype M1. Besides, by adding 100 ng of IL-4 to the IMDM containing 5% FBS and 1% P/S, the cells were differentiated to the subtype M2. After performing the incubation for further 3 days in the presence of 5% CO2 at 37° C., the resultant was rinsed with PBS, and PBS containing 0.25% trypsin and 1 mM EDTA (ethylenediaminetetraacetic acid) was used for collecting, from the dish, the macrophages having been differentiated to the subtypes M1 and M2.
Thereafter, the tube was centrifuged at 180 G for 10 minutes to remove the supernatant, a dye for identifying dead cells (aqua fluorescent reactive dye, manufactured by Invitrogen; which is hereinafter sometimes abbreviated as aqua) was added thereto, and the resultant was incubated at 4° C. for 10 minutes. Subsequently, the tube was centrifuged at 180 G for 10 minutes to remove the supernatant, cells were suspended in a FACS buffer to be analyzed by using FACSCanto (trademark) II flow cytometry apparatus manufactured by BD.
The analysis was performed on a cell population showing a low signal for the aqua, so as to analyze a cell population from which dead cells were eliminated. […] A histogram was prepared by plotting fluorescence intensity obtained in the FITC channel on the abscissa and plotting the number of cells at each fluorescence intensity on the ordinate, which is shown in FIG. 2.
Histograms were prepared by plotting fluorescence intensities obtained in the respective channels on the abscissa and plotting the numbers of cells at each fluorescence intensity on the ordinate. A difference between a fluorescence intensity (FM1) at a peak top of the histogram of the M1 macrophage and a fluorescence intensity (FM2) at a peak top of the histogram of the M2 macrophage is divided by a sum of a peak width (WM1) of the histogram of the M1 macrophage and a peak width (WM2) of the histogram of the M2 macrophage, so as to obtain a resolution R, which was used as an index of the identification ability for a subtype (see the following expression (1)). Resolution R=|FM1−FM2|/(WM1+WM2) Expression (1)
For orientation: A flow cytometer gives signals particle by particle.

Where [1] appears, read: M1 vs M2 macrophages from mouse bone marrow cells, general formula (11) dyes (Table 9).
The mark [2] stands for this setting: class based on resolution R, general formula (11) dyes (Table 9).
Setting [3] is: mouse bone marrow-derived M1 macrophages, channel listed per compound, general formula (11) dyes (Table 9).
Where [4] appears, read: mouse bone marrow-derived M2 macrophages, channel listed per compound, general formula (11) dyes (Table 9).
Setting [5] is: R=|FM1−FM2|/(WM1+WM2), compound 1 μM.
The mark [6] stands for this setting: fluorescence intensity at peak top of histogram, compound 1 μM, 37° C., 30 minutes.
Setting [7] is: M1 vs M2 macrophages from mouse bone marrow cells, general formula (6) dyes (Table 7).
[8] abbreviates: class based on resolution R, general formula (6) dyes (Table 7).
The mark [9] stands for this setting: mouse bone marrow-derived M1 macrophages, channel listed per compound, general formula (6) dyes (Table 7).
Setting [10] is: mouse bone marrow-derived M2 macrophages, channel listed per compound, general formula (6) dyes (Table 7).

For the compound `CCC1=C(C)C2=C(C)c3c(C)c(CC)c(C)n3[B-](C#C[Si](C)(C)C)(C#C[Si](C)(C)C)[N+]2=C1C` [compound (154)], the “Resolution ratio R” value under setting [1] amounted to 0.160. Also, the “Evaluation of macrophage subtype identification” value (“Evaluation” below) under setting [2] was “B (the compound is good in the subtype identification (namely, the resolution R is 0.15 or more and less than 0.5))”. Also, the “Peak position of M1 macrophage” value under setting [3] is on record as 1.25. The “Peak position of M2 macrophage” value under setting [4] was 1.63.
For `Cc1cc(C)n2c1C=C1C=CC(CCC(=O)c3c(F)c(F)c(S(=O)(=O)O)c(F)c3F)=[N+]1[B-]2(F)F` [(167)], the “Resolution ratio R” value under setting [1] is given as 0.525. For the same compound, the “Evaluation” value under setting [2] was “A (The compound is very good in the subtype identification (namely, the resolution R is 0.5 or more))”. For the same compound, the “Peak position of M1 macrophage” value under setting [3] worked out at 14.5. The “Peak position of M2 macrophage” value under setting [4] came to 7.82.
As to `CC1(C)C(/C=C/c2ccc3c(c2)C2CCCC2N3c2ccc(C=C(c3ccccc3)c3ccccc3)cc2)=[N+](CCC(=O)O)c2ccccc21` (stereo not shown) [(59)], under setting [5], the “Resolution ratio R” value stood at 0.733. Further, under setting [6], the “Peak position of M1 macrophage” value is reported as 188 and the “Peak position of M2 macrophage” value amounted to 325. Further, the “Evaluation” value (rated from resolution R) is reported as “A (The compound is very good in the subtype identification (namely, the resolution R is 0.5 or more))”.
For `CCN1c2ccc(/C=C/c3sc4ccccc4[n+]3CC(=O)O)cc2C2CCCC21` (stereo not shown) [(65)], the “Resolution ratio R” value under setting [5] is recorded as 0.236. Moreover, under setting [6], the “Peak position of M1 macrophage” value is 2.96 and the “Peak position of M2 macrophage” value was determined as 4.67. In addition, for the setting “rated from resolution R”, the “Evaluation” value was “B (the compound is good in the subtype identification (namely, the resolution R is 0.15 or more and less than 0.5))”.
Turning to `Cc1cc(C)n2c1C=C1C=CC(CCC(=O)NN)=[N+]1[B-]2(F)F` [(166)], the “Resolution ratio R” value under setting [1] came to 0.722. For the same compound, under setting [2], the “Evaluation” value was “A (The compound is very good in the subtype identification (namely, the resolution R is 0.5 or more))”. The “Peak position of M1 macrophage” value under setting [3] was determined as 127. In addition, the “Peak position of M2 macrophage” value under setting [4] amounted to 56.3.
In the case of `CSc1ccc(N2c3ccc(/C=C4/SC(=S)N(CC(=O)O)C4=O)cc3C3CCCC32)cc1` (stereo not shown) [(30)], the “Resolution ratio R” value under setting [5] is 0.257. Under setting [6], the “Peak position of M1 macrophage” value was 55.1 and the “Peak position of M2 macrophage” value is reported as 73.9. Under “rated from resolution R”, the “Evaluation” value is “B (the compound is good in the subtype identification (namely, the resolution R is 0.15 or more and less than 0.5))”.
As to `O=C(O)CCCCCN1C(=O)/C(=C\c2ccc3c(c2)C2CCCC2N3c2ccccc2)SC1=S` (stereo not shown) [(17)], the “Resolution ratio R” value under setting [5] is reported as 0.577. Besides, under setting [6], the “Peak position of M1 macrophage” value came to 7.74 and the “Peak position of M2 macrophage” value is recorded as 16.5. Besides, the “Evaluation” value (rated from resolution R) is reported as “A (The compound is very good in the subtype identification (namely, the resolution R is 0.5 or more))”.
Turning to `CCN1c2ccc(/C=C3/SC(=S)N(CCC(=O)O)C3=O)cc2CC1C` (stereo not shown) [(56)], under setting [5], the “Resolution ratio R” value amounted to 0.207. Moreover, under setting [6], the “Peak position of M1 macrophage” value is given as 4.90 and the “Peak position of M2 macrophage” value is given as 6.36. Besides, the “Evaluation” value (rated from resolution R) was “B (the compound is good in the subtype identification (namely, the resolution R is 0.15 or more and less than 0.5))”.
With `CC1(C)C(/C=C/C=C/C=C/C=C2\N(CCCCCC(=O)[O-])c3ccccc3C2(C)C)=[N+](CCCCCC(=O)[O-])c2ccccc21.[Na+]` [(91)], the “Resolution ratio R” value under setting [7] was 0.476. The “Evaluation” value under setting [8] was “B (the compound is good in the subtype identification (namely, the resolution R is 0.15 or more and less than 0.5))”. Further, the “Peak position of M1 macrophage” value under setting [9] is listed as 2.96. The “Peak position of M2 macrophage” value under setting [10] came out at 13.89.
Regarding `O=C(O)CN1C(=O)/C(=C\C=C\c2ccc3c(c2)C2CCCC2N3c2ccccc2)SC1=S` (stereo not shown) [(85)], the “Resolution ratio R” value under setting [5] was 0.179. In addition, under setting [6], the “Peak position of M1 macrophage” value was 225 and the “Peak position of M2 macrophage” value came to 285. The “Evaluation” value (rated from resolution R) was “B (the compound is good in the subtype identification (namely, the resolution R is 0.15 or more and less than 0.5))”.
For the compound `COc1ccc(N2c3ccc(/C=c4/s/c(=C5/SC(=S)N(Cc6ccccc6)C5=O)n(CC(=O)O)c4=O)cc3C3CCCC32)cc1` (stereo not shown) [(54)], the “Resolution ratio R” value under setting [5] came out at 0.531. Moreover, under setting [6], the “Peak position of M1 macrophage” value worked out at 154 and the “Peak position of M2 macrophage” value was 211. For the same compound, the “Evaluation” value (rated from resolution R) is “A (The compound is very good in the subtype identification (namely, the resolution R is 0.5 or more))”.
On to `COc1ccc2cc(N3c4ccc(/C=C5/SC(=S)N(CCC(=O)O)C5=O)cc4C4CCCC43)ccc2c1` (stereo not shown) [(22)], for which the “Resolution ratio R” value under setting [5] was found to be 0.389. Besides, under setting [6], the “Peak position of M1 macrophage” value is 199 and the “Peak position of M2 macrophage” value amounted to 313. Moreover, the “Evaluation” value (rated from resolution R) was “B (the compound is good in the subtype identification (namely, the resolution R is 0.15 or more and less than 0.5))”.
On to `C=CCN1C(=O)/C(=c2\s/c(=C/c3ccc4c(c3)C3CCCC3N4Cc3ccccc3)c(=O)n2CC(=O)OCC)SC1=S` (stereo not shown) [(52)], for which, under setting [5], the “Resolution ratio R” value came out at 0.756. Moreover, under setting [6], the “Peak position of M1 macrophage” value came out at 3.90 and the “Peak position of M2 macrophage” value was 1.68. For the setting “rated from resolution R”, the “Evaluation” value is “A (The compound is very good in the subtype identification (namely, the resolution R is 0.5 or more))”.
`CCN1/C(=C\C=C\c2oc3ccccc3[n+]2CC)Oc2ccccc21` [(98)]: the “Resolution ratio R” value under setting [7] is 0.507. Under setting [8], the “Evaluation” value is “A (The compound is very good in the subtype identification (namely, the resolution R is 0.5 or more))”. Further, under setting [9], the “Peak position of M1 macrophage” value is given as 21.95. Under setting [10], the “Peak position of M2 macrophage” value was 61.59.
`CC1=C(S(=O)(=O)O)C(C)=[N+]2C1=C(C)c1c(C)c(S(=O)(=O)O)c(C)n1[B-]2(F)F` [(165)]: the “Resolution ratio R” value under setting [1] is on record as 0.183. Further, under setting [2], the “Evaluation” value was “B (the compound is good in the subtype identification (namely, the resolution R is 0.15 or more and less than 0.5))”. Moreover, the “Peak position of M1 macrophage” value under setting [3] was 1.25. In addition, the “Peak position of M2 macrophage” value under setting [4] amounted to 2.00.
Turning to `O=C(O)CCC(C(=O)O)N1C(=O)/C(=C\c2ccc3c(c2)C2CCCC2N3c2ccccc2)SC1=S` (stereo not shown) [(23)], the “Resolution ratio R” value under setting [5] was 0.185. Further, under setting [6], the “Peak position of M1 macrophage” value is given as 1.10 and the “Peak position of M2 macrophage” value amounted to 1.48. In addition, under “rated from resolution R”, the “Evaluation” value is “B (the compound is good in the subtype identification (namely, the resolution R is 0.15 or more and less than 0.5))”.
On to `CSc1cccc(N2c3ccc(/C=C4/SC(=S)N(CC(=O)O)C4=O)cc3C3CCCC32)c1` (stereo not shown) [(50)], for which the “Resolution ratio R” value under setting [5] is on record as 1.025. Under setting [6], the “Peak position of M1 macrophage” value worked out at 3.24 and the “Peak position of M2 macrophage” value is listed as 0.99. For the same compound, the “Evaluation” value (rated from resolution R) is reported as “A (The compound is very good in the subtype identification (namely, the resolution R is 0.5 or more))”.
With `CCOC(=O)CN1C(=O)/C(=C\c2ccc3c(c2)C2CCCC2N3c2ccc(C=C(c3ccccc3)c3ccccc3)cc2)SC1=S` (stereo not shown) [(19)], under setting [5], the “Resolution ratio R” value turned out to be 0.319. For the same compound, under setting [6], the “Peak position of M1 macrophage” value was found to be 0.90 and the “Peak position of M2 macrophage” value turned out to be 0.64. Moreover, the “Evaluation” value (rated from resolution R) is “B (the compound is good in the subtype identification (namely, the resolution R is 0.15 or more and less than 0.5))”.
Turning to `COc1ccc(N2c3ccc(/C=C4/SC(=S)N(CC(=O)O)C4=O)cc3C3CCCC32)cc1` (stereo not shown) [(25)], the “Resolution ratio R” value under setting [5] is given as 0.346. Also, under setting [6], the “Peak position of M1 macrophage” value is on record as 27.4 and the “Peak position of M2 macrophage” value came out at 18.2. Besides, where the note is “rated from resolution R”, the “Evaluation” value was “B (the compound is good in the subtype identification (namely, the resolution R is 0.15 or more and less than 0.5))”.
